Laboratory results: US8357733B2, “Processes for making silane, hydrophobated silica, silica masterbatch and rubber products” (Industrias Negromex, S.A. de C.V., priority 2008, dated 2013)

What was measured:
[1] = Solubility of silanes in water-isopropanol mixtures; assay type: physicochemical; settings: for Water solubility: comparison methoxysilane vs ethoxysilane, see Table 4; for Soluble?: water-isopropanol, 96.0 % water (wt.)
Description: An aqueous solution of silane was prepared by charging to a vessel 4 grams of isopropanol, 0.7 grams of acetic acid and then 1.57 grams (4% by wt silica) of mercapto Propyl trimethoxysilane (Silquest A189). The mixture was then stirred vigorously at room temperature while 96 grams of water was slowly added. The mixture was then stirred for a further 15 minutes until the solution cleared.
The following experiments were conducted to examine the solubility of various silane coupling agents.

[2] = as above; assay type: physicochemical; settings: for Soluble?: water-isopropanol

With `CCO[Si](CCCS)(OCC)OCC` [MPTES, mercaptopropyltriethoxysilane] the Water solubility [1] was “insoluble” and the “Soluble?” value ([2]; 63.2 % water (wt.), pH 3.5-4.0) was “insoluble and No”.

With `CO[Si](CCCS)(OC)OC` [MPTMS, mercaptopropyl trimethoxysilane] the Water solubility [1] was “soluble”, the “Soluble?” value ([1]; pH 3.5-4.0) was “soluble” and the “Soluble?” value ([1]; pH 3.5-4.0, listed as MPTMS (A189)) was “Yes”. For the same compound, the “Soluble?” value ([2]; 63.2 % water (wt.), pH 3.5-4.0) was “Yes”.

With `CCO[Si](CCCSSCCC[Si](OCC)(OCC)OCC)(OCC)OCC` [TESPD, bis-(3-triethoxysilylpropyl)-disulfide] the “Solubility in the water-alcohol mixture” value ([1]; procedure of comparative example 1A (4 grams isopropanol, 0.7 grams acetic acid, 96 grams water), high purity TESPD) was “not soluble”, the “Soluble?” value ([2]; 22.2 % water (wt.), pH 3.8) was “soluble and Yes” and the “Soluble?” value ([2]; 27.8 % water (wt.), pH 3.5) was “insoluble and No”.

With `CO[Si](CCCSSCCC[Si](OC)(OC)OC)(OC)OC` [TMSPD, bis-(3-trimethoxysilylpropyl)-disulfide] the “Soluble?” value ([1]; pH 4.1) was “soluble”, the “Soluble?” value ([1]; pH 4.1, listed as TMSPD (Present invention)) was “Yes” and the “Solubility in 70/30 water/isopropanol mixture” value ([2]; TMSPD prepared using the Pletka process, no unusual precautions to purify the methanol) was “insoluble”.
